These results are taken from article PMC3898987 (Bioorganic & Medicinal Chemistry, 2013).

Common to all, as to assay: FlexStation membrane potential dye functional assay, HEK293 cells
What all share (assay type): cell-based
Holding throughout (parameters): expressed in transfected cells; host or cells: HEK293

The target of one assay is T1, WT 5-HT3A receptor (Homo sapiens, UniProt P46098).
T1 sequence (P46098 24-478): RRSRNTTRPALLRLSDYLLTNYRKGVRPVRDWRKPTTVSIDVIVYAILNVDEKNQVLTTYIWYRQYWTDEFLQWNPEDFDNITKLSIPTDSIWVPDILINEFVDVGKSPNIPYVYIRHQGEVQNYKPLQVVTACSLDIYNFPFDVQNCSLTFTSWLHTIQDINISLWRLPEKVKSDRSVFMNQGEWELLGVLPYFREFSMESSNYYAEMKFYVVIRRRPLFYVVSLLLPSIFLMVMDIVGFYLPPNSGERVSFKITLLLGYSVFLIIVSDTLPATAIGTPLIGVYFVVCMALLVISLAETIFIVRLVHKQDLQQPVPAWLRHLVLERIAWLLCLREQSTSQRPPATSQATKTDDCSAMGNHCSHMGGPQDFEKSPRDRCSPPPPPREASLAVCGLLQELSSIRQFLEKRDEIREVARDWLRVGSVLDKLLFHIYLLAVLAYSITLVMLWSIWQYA

Another assay addresses T2, 5-HT3A receptor Y73F (Homo sapiens, UniProt P46098, Y68F).
T2 sequence (P46098 24-478 Y68F): T1 sequence (P46098 24-478) with Y45F
Particulars: 5-HT3A Y73F.

The target in the next assay is T3, 5-HT3A receptor Y73S (Homo sapiens, UniProt P46098, Y68S).
T3 sequence (P46098 24-478 Y68S): T1 sequence (P46098 24-478) with Y45S
The following applies: 5-HT3A Y73S.

For a further assay, the target named is T4, 5-HT3A receptor F130A (Homo sapiens, UniProt P46098, F125A).
T4 sequence (P46098 24-478 F125A): T1 sequence (P46098 24-478) with F102A
The following applies: 5-HT3A F130A.

Another assay deals with T5, 5-HT3A receptor S163A (Homo sapiens, UniProt P46098, S158A).
T5 sequence (P46098 24-478 S158A): T1 sequence (P46098 24-478) with S135A
Particulars: 5-HT3A S163A.

Setting [1] is: inhibition of 5-HT (EC50 concentration) response, 45 min preincubation.

Substitutions are numbered along the chain they refer to. Several values for one entry are separate records, joined by “and”; a condition that tells them apart may be missing. Identical values can stand only once.

Experimental for 5-HT3A receptor F130A: (§1) Human embryonic kidney (HEK) 293 cells were cultured on 90 mm tissue culture plates at 37 °C and 7% CO2 in a humidified atmosphere. They were grown in DMEM:F12 (Dulbecco’s Modified Eagle’s Medium/Nutrient Mix F12 (1:1)) with GlutaMAX I™ containing 10% fetal calf serum and passaged when confluent. […] For FlexStation assays, transfected cells were plated on 96-well plates and incubated 1–2 days before assay.
(§2) Fluorometric studies were undertaken using a FlexStation® (Molecular Devices, Sunnyvale, CA, USA) as previously described.[11]
(§3) Fluorescence was measured every 2 s for 200 s. […] Concentration–response and inhibition curves were obtained for each mutant, and the fluorescence values were normalized to the maximal response.
Experimental for 5-HT3A receptor S163A: as §1, §2, §3
Experimental for 5-HT3A receptor Y73F: as §1, §2, §3
Experimental for 5-HT3A receptor Y73S: as §1, §2, §3
Experimental for WT 5-HT3A receptor: as §1, §2, §3

`NCCc1c[nH]c2ccc(O)cc12` [5-HT, serotonin]: the “Hill Coefficient” value is 2.3 and 2.3 ± 0.2 on WT 5-HT3A receptor (5-HT concentration-response); 2.3 ± 0.3 at 5-HT3A receptor Y73F (5-HT concentration-response); 2.0 ± 0.3 on 5-HT3A receptor Y73S (5-HT concentration-response); 1.5 ± 0.2 at 5-HT3A receptor F130A (5-HT concentration-response); 3.8 ± 0.4 on 5-HT3A receptor S163A (5-HT concentration-response).
A word on the IC50: it is the concentration needed to halve the response being measured. A lower IC50 goes with greater potency. Regarding `O=C1c2cccc3c2[C@H](CCC3)CN1[C@@H]1CN2CCC1CC2` [Palonosetron], the IC50 worked out at 0.83 ± 0.49 nM against WT 5-HT3A receptor (setting [1]); 1.23 ± 0.15 nM against 5-HT3A receptor Y73F (setting [1]); 3.64 ± 1.1 nM against 5-HT3A receptor Y73S (setting [1]); 4.4 ± 1.8 nM at 5-HT3A receptor F130A (setting [1]); 1.57 ± 0.12 nM on 5-HT3A receptor S163A (setting [1]).
